According to article PMC12148948, “Targeting enabled homolog with daunorubicin inhibits ERK1/2/c‐Fos pathway and suppresses hepatocellular carcinoma progression” (Clinical and Translational Medicine, 2025):

Biological target: T1, enabled homolog (ENAH) (Homo sapiens, UniProt Q8N8S7)
T1 sequence (Q8N8S7 1-591): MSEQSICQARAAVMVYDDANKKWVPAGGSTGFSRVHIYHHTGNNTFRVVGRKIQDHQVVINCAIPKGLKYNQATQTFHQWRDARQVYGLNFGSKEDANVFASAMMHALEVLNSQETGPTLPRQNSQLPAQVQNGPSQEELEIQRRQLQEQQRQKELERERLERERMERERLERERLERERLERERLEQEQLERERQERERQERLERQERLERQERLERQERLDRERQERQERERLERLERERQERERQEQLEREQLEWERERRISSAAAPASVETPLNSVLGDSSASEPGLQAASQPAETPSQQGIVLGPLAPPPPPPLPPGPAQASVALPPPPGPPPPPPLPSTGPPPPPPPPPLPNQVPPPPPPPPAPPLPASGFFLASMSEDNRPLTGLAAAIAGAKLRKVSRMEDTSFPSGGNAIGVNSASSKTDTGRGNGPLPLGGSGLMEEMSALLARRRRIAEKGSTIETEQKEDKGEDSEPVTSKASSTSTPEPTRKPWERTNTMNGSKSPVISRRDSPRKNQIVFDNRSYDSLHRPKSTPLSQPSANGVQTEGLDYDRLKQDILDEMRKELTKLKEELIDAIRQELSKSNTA
Experiment: CETSA in HCCLM3 cells ([…] daunorubicin), western blot
Assay type: cell-based

In the case of COc1cccc2c1C(=O)c1c(O)c3c(c(O)c1C2=O)C[C@@](O)(C(C)=O)C[C@@H]3O[C@H]1C[C@H](N)[C@H](O)[C@H](C)O1 [compound 11, daunorubicin], the “CETSA in HCCLM3 cells (1 μM daunorubicin), western blot” value is reported as “The interaction between ENAH and daunorubicin was confirmed by the cellular thermal shift assay (CETSA)”.
